Results published in patent publication US8148391B2 (Cephalon, Inc., priority 2006, dated 2012).
Like-named read-outs stand apart in the source and are kept apart here. One block for each compound: values may come before it.

Columns and labels:
[1] = target: T1, baculovirus-expressed ALK (Homo sapiens, UniProt Q9UM73); experiment: ALK Kinase Assay (ELISA-type, time-resolved fluorescence); type: biochemical
T1 construct: host or cells: baculovirus expression system
Procedure, shortened: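 Wells were coated with phospholipase C-γ at 10 μg/mL in Tris-buffered saline. Adding 30 ng/ml enzyme started the reaction, which ran at 37° C for 15 minutes before Eu-N1 PT66 antibody detection. Percent inhibition versus log10 concentration gave IC50 by variable-slope fit.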

[2] = target: T2, c-Met (cytoplasmic domain) (Homo sapiens, UniProt P08581); experiment: c-Met Kinase Assay (same methods as for ALK, with modifications); type: biochemical
T2 construct: 10 ng/mL c-Met (cytoplasmic domain, Invitrogen Corporation #PV3143); purchased Invitrogen Corporation PV3143
T2 sequence (P08581 956-1390 limits assumed): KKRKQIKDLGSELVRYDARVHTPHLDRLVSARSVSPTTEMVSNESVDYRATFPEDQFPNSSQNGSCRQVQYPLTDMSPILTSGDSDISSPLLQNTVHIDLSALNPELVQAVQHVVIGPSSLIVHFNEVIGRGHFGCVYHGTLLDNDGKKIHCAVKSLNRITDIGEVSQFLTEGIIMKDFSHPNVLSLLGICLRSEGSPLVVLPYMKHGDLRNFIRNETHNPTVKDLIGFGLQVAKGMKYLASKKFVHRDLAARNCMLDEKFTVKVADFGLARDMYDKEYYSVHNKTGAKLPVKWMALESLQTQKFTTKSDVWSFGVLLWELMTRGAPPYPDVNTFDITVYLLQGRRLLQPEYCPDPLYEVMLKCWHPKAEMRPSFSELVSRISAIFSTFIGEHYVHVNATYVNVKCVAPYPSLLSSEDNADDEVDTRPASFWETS
Procedure, shortened: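 Steps: coat wells with PLC-γ (10 μg/mL, Tris-buffered saline); add 10 ng/mL c-Met cytoplasmic domain to initiate; incubate 15 min, 37° C; detect phosphoproduct via Eu-N1 PT66 antibody.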

[3] = 1 μM ATP (Km level), read-out: ALK Activity (ALK Kinase Inhibition, IC50)
[4] = 1 μM ATP (Km level), read-out: cMet Activity (c-Met Kinase Inhibition, IC50)
[5] = ALK kinase inhibition, 1 μM ATP (Km level), read-out: ALK Activity
[6] = c-Met kinase inhibition, 1 μM ATP (Km level), read-out: cMet Activity
[7] = ALK kinase inhibition, 1 μM ATP, read-out: ALK Activity
[8] = c-Met kinase inhibition, 1 μM ATP, read-out: cMet Activity
[9] = 1 μM ATP (Km level), 30 ng/ml ALK, 37° C., 15 minutes, read-out: ALK Activity (ALK kinase inhibition, IC50 class)
[10] = 1 μM ATP (Km level), 10 ng/mL c-Met, read-out: cMet Activity (c-Met kinase inhibition, IC50 class)

T1 sequence (Q9UM73 19-1620): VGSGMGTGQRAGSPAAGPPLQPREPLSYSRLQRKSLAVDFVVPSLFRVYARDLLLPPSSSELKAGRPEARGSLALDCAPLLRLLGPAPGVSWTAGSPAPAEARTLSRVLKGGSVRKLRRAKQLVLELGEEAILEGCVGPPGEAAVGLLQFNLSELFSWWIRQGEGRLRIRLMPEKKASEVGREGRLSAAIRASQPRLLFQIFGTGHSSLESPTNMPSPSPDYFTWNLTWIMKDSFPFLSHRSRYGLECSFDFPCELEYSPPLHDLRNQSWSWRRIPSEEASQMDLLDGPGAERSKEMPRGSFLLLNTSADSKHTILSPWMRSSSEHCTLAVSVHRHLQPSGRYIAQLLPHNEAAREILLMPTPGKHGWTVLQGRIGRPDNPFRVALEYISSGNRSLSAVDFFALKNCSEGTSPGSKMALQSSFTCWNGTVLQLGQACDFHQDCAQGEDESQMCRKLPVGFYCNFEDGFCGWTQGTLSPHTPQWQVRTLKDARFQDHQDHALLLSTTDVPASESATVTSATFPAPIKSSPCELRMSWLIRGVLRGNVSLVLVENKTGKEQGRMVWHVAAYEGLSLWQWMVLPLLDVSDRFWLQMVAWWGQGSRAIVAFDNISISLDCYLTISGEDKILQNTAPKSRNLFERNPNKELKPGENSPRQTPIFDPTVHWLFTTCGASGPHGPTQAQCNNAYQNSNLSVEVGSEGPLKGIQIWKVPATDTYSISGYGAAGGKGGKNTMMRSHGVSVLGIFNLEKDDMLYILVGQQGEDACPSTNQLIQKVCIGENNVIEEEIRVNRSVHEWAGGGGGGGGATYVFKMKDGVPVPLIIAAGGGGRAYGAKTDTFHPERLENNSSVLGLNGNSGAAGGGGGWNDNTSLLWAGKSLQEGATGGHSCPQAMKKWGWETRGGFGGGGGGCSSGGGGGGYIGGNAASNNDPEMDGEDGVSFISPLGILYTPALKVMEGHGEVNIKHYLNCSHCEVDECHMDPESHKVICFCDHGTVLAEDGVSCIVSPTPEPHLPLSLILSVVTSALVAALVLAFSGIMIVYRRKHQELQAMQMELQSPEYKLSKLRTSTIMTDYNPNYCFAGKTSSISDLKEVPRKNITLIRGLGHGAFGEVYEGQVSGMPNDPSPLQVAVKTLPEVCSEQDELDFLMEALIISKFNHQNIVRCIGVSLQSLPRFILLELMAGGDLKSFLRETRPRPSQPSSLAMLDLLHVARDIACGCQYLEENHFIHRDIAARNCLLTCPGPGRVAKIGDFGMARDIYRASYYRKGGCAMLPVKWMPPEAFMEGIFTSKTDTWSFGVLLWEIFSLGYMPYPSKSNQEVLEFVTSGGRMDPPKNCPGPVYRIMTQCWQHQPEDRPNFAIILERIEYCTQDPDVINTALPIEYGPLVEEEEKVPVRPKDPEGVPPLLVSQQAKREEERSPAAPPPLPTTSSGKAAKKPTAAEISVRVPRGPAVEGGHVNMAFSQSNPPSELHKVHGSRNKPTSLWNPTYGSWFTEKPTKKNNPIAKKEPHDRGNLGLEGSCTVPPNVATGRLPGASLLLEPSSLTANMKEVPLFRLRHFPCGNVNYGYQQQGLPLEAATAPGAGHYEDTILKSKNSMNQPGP

SMILES: CNC(=O)c1cccc(F)c1Nc1nc(Nc2ccc3c(c2)CCC(NCC(F)F)CC3)ncc1Cl (stereo not shown) [Example 664, 2-{5-Chloro-2-[7-(2,2-difluoro-ethylamino)-6,7,8,9-tetrahydro-5H-benzocyclohepten-2-ylamino]-pyrimidin-4-ylamino}-3-fluoro-N-methyl-benzamide]
IC50 [1, 3]: < 100 nM
IC50 [2, 4]: < 100 nM

SMILES: COCCNC1CCc2cc(Nc3ncc(Cl)c(Nc4c(OC)ccc5c4CN(S(C)(=O)=O)CC(=O)N5)n3)c(OC)cc2CC1 (stereo not shown) [Example 750, 6-{5-Chloro-2-[3-methoxy-7-(2-methoxy-ethylamino)-6,7,8,9-tetrahydro-5H-benzocyclohepten-2-ylamino]-pyrimidin-4-ylamino}-4-methanesulfonyl-7-methoxy-1,3,4,5-tetrahydro-benzo[e][1,4]diazepin-2-one]
IC50 [1, 3]: 1000 to 10000 nM
IC50 [2, 4]: > 10000 nM

SMILES: CNC(=O)c1cccc(F)c1Nc1nc(Nc2ccc3c(c2)CCC(N2CCN(C)CC2)CC3)ncc1Cl (racemic) [Example 899, 2-{5-Chloro-2-[7-(4-methyl-piperazin-1-yl)-6,7,8,9-tetrahydro-5H-benzocyclohepten-2-ylamino]-pyrimidin-4-ylamino}-3-fluoro-N-methyl-benzamide]
IC50 [1, 3]: < 100 nM
IC50 [2, 4]: < 100 nM

SMILES: CCN1CCN(CC)c2cc(Nc3ncc(Cl)c(Nc4ccc5c(c4)N(CC)CCN(CC)C5)n3)ccc2C1 [Example 721, 5-Chloro-N*2*,N*4*-bis(1,4-diethyl-2,3,4,5-tetrahydro-1H-benzo[e][1,4]diazepin-8-yl)-pyrimidin-2,4-diamine]
IC50 [1, 3]: < 100 nM
IC50 [2, 4]: > 10000 nM

SMILES: COc1cc2c(cc1Nc1ncc(Cl)c(N[C@H]3[C@@H](C(N)=O)[C@@H]4C=C[C@H]3C4)n1)N(C)C(=O)CN(CC#N)C2 [Example 744, (1S,2S,3R,4R)-3 [5-Chloro-2-(4-cyanomethyl-7-methoxy-1-methyl-2-oxo-2,3,4,5-tetrahydro-1H-benzo[e][1,4]diazepin-8-ylamino)-pyrimidin-4-ylamino]-bicyclo(2.2.1)hept-5-ene-2-carboxylic acid amide]
IC50 [1, 3]: 100 to 1000 nM
IC50 [2, 4]: > 10000 nM

SMILES: COc1cc2c(cc1Nc1ncc(F)c(Nc3ccc(N4CCN(C)CC4)cc3OC)n1)CCN(CC(=O)N(C)C)CC2 [Example 793, 2-(7-{5-Fluoro-4-[2-methoxy-4-(4-methyl-piperazin-1-yl)-phenylamino]-pyrimidin-2-ylamino}-8-methoxy-1,2,4,5-tetrahydro-benzo[d]azepin-3-yl)-N,N-dimethyl-acetamide]
IC50 [1, 3]: < 100 nM
IC50 [2, 4]: > 10000 nM

SMILES: CN1CCN(S(C)(=O)=O)Cc2ccc(Nc3ncc(Cl)c(Nc4ccccc4NS(C)(=O)=O)n3)cc21 [Example 474, N-{2-[5-Chloro-2-(4-methanesulfonyl-1-methyl-2,3,4,5-tetrahydro-1H-benzo[e][1,4]diazepin-8-ylamino)-pyrimidin-4-ylamino]-phenyl}-methanesulfonamide]
IC50 [1, 5]: < 100 nM
IC50 [2, 6]: 100 to 1000 nM

SMILES: CCN1CCc2ccc(Nc3ncc(C)c(Nc4ccccc4C(=O)NC)n3)cc2CC1 [Example 191, 2-[2-(3-Ethyl-2,3,4,5-tetrahydro-1H-benzo[d]azepin-7-ylamino)-5-methyl-pyrimidin-4-ylamino]-N-methyl-benzamide]
IC50 [1, 5]: < 100 nM
IC50 [2, 6]: < 100 nM

SMILES: CNS(=O)(=O)c1ccccc1Nc1nc(Nc2ccc3c(c2)C2CCC3CN(C(C)=O)C2)ncc1Cl (stereo not shown) [Example 289, 2-[2-(10-Acetyl-10-aza-tricyclo[6.3.2.0*2,7*]trideca-2,4,6-trien-4-ylamino)-5-chloro-pyrimidin-4-ylamino]-N-methyl-benzenesulfonamide]
IC50 [1, 5]: < 100 nM
IC50 [2, 6]: 100 to 1000 nM

SMILES: COCCN1CCSc2ccc(Nc3ncc(Cl)c(N[C@@H]4CCCC[C@H]4NS(C)(=O)=O)n3)cc2C1 [Example 521, N-((1R,2R)-2-{5-Chloro-2-[8-(2-methoxy-ethyl)-6,7,8,9-tetrahydro-5-thia-8-aza-benzocyclohepten-2-ylamino]pyrimidin-4-ylamino}-cyclohexyl)-methanesulfonamide]
IC50 [1, 3]: < 100 nM
IC50 [2, 4]: 1000 to 10000 nM

SMILES: CCN1CCc2ccc(Nc3ncc(Cl)c(NC(C)(C)CNS(C)(=O)=O)n3)cc2CC1 [Example 307, N-{2-[5-Chloro-2-(3-ethyl-2,3,4,5-tetrahydro-1H-benzo[d]azepin-7-ylamino)-pyrimidin-4-ylamino]-2-methyl-propyl}-methanesulfonamide]
IC50 [1, 5]: 1000 to 10000 nM
IC50 [2, 6]: > 10000 nM

SMILES: COc1cc2c(cc1Nc1ncc(Cl)c(N[C@@H]3CCCC[C@H]3NS(C)(=O)=O)n1)CCN(C(=O)C(F)(F)F)CC2 [Example 247, N-((1R,2R)-2-{5-Chloro-2-[8-methoxy-3-(2,2,2-trifluoro-acetyl)-2,3,4,5-tetrahydro-1H-benzo[d]azepin-7-ylamino]-pyrimidin-4-ylamino}-cyclohexyl)-methanesulfonamide]
IC50 [1, 5]: < 100 nM
IC50 [2, 6]: > 10000 nM

SMILES: CCN1C(=O)CCCc2c1ccc(Nc1ncc(Cl)c(NC3C4C=CC(C4)C3C(=O)NC(C)C)n1)c2OC (stereo not drawn) [Example 603, (2-exo-3-exo)-3-[5-Chloro-2-(1-ethyl-6-methoxy-2-oxo-2,3,4,5-tetrahydro-1H-benzo[b]azepin-7-ylamino)-pyrimidin-4-ylamino]-bicyclo[2.2.1]hept-5-ene-2-carboxylic acid isopropylamide]
IC50 [1, 3]: 100 to 1000 nM
IC50 [2, 4]: > 10000 nM

SMILES: CCNC(=O)c1ccccc1Nc1nc(Nc2cccc3c2OCCCC3(C)C)ncc1Cl [Example 873, 2-[5-Chloro-2-(5,5-dimethyl-2,3,4,5-tetrahydro-benzo[b]oxepin-9-ylamino)-pyrimidin-4-ylamino]-N-ethyl-benzamide]
IC50 [1, 3]: < 100 nM
IC50 [2, 4]: > 10000 nM

SMILES: COc1c(Nc2ncc(Cl)c(N[C@@H]3CCCC[C@H]3NS(C)(=O)=O)n2)ccc2c1C1CCC(C2)N1 (stereo partly drawn) [Example 92, N-{(1R,2R)-2-[5-Chloro-2-(3-methoxy-12-aza-tricyclo[7.2.1.0*2,7*]dodeca-2(7),3,5-trien-4-ylamino)-pyrimidin-4-ylamino]-cyclohexyl}-methanesulfonamide]
IC50 [1, 5]: 1000 to 10000 nM
IC50 [2, 6]: > 10000 nM

Continued, values first:

IC50 [1, 7]: < 100 nM
IC50 [2, 8]: 1000 to 10000 nM
SMILES: CN([C@@H]1CCCC[C@H]1Nc1nc(Nc2ccc3c(c2)C(C)(C)CCC(=O)N3)ncc1Cl)S(C)(=O)=O [Example 1674, N-{(1R,2R)-2-[5-Chloro-2-(5,5-dimethyl-2-oxo-2,3,4,5-tetrahydro-1H-benzo[b]azepin-7-ylamino)-pyrimidin-4-ylamino]-cyclohexyl}-N-methyl-methanesulfonamide]

IC50 [1, 7]: < 100 nM
IC50 [2, 8]: < 100 nM
SMILES: O=C1CCCc2ccc(Nc3ncc(Cl)c(Nc4ccccc4S(=O)(=O)N4CCCC4)n3)cc2N1 [Example 1731, 8-{5-Chloro-4-[2-(pyrrolidine-1-sulfonyl)-phenylamino]-pyrimidin-2-ylamino}-1,3,4,5-tetrahydro-benzo[b]azepin-2-one]

IC50 [1, 9]: < 100 nM
IC50 [2, 10]: < 100 nM
SMILES: CNS(=O)(=O)c1ccccc1Nc1nc(Nc2ccc3c(c2)CNC(=O)CCN3C(=O)C(F)(F)F)ncc1Cl [Example 1303, 2-{5-Chloro-2-[4-oxo-1-(2,2,2-trifluoro-acetyl)-1,2,3,4,5,6-hexahydro-benzo[b][1,5]diazocin-8-ylamino]-pyrimidin-4-ylamino}-N-methyl-benzenesulfonamide]

IC50 [1, 7]: 100 to 1000 nM
IC50 [2, 8]: 100 to 1000 nM
SMILES: C#CCNC(=O)c1cccc(F)c1Nc1nc(Nc2ccc3c(c2)N(CC)CC(O)(CO)CO3)ncc1Cl (stereo not shown) [Example 1721, 2-[5-Chloro-2-(9-ethyl-7-hydroxy-7-hydroxymethyl-6,7,8,9-tetrahydro-5-oxa-9-aza-benzocyclohepten-2-ylamino)-pyrimidin-4-ylamino]-3-fluoro-N-prop-2-ynyl-benzamide]

IC50 [1, 9]: 100 to 1000 nM
IC50 [2, 10]: 100 to 1000 nM
SMILES: C#CCNC(=O)c1cccc(F)c1Nc1nc(Nc2ccc3c(c2)NC(=O)CCC3)ncc1Cl [Example 1404, 2-[5-Chloro-2-(2-oxo-2,3,4,5-tetrahydro-1H-benzo[b]azepin-8-ylamino)-pyrimidin-4-ylamino]-3-fluoro-N-prop-2-ynyl-benzamide]

IC50 [1, 3]: < 100 nM
IC50 [2, 4]: < 100 nM
SMILES: CC1(C)CCC(=O)Nc2cc(Nc3ncc(Cl)c(Nc4c(F)cccc4OCC#N)n3)ccc21 [Example 930, {2-[5-Chloro-2-(5,5-dimethyl-2-oxo-2,3,4,5-tetrahydro-1H-1-benzazepin-8-ylamino)-pyrimidin-4-ylamino]-3-fluoro-phenoxy}-acetonitrile]

IC50 [1, 9]: < 100 nM
IC50 [2, 10]: < 100 nM
SMILES: C#CCNC(=O)c1cccc(F)c1Nc1nc(Nc2ccc3c(c2)NC(=O)C(NC(=O)COC)CC3(C)C)ncc1Cl (stereo not shown) [Example 1293, 2-{5-Chloro-2-[3-(2-methoxy-acetylamino)-5,5-dimethyl-2-oxo-2,3,4,5-tetrahydro-1H-1-benzazepin-8-ylamino]-pyrimidin-4-ylamino}-3-fluoro-N-prop-2-ynyl-benzamide]

IC50 [1, 7]: < 100 nM
IC50 [2, 8]: 1000 to 10000 nM
SMILES: CN([C@@H]1CCCC[C@H]1Nc1nc(Nc2ccc3c(c2)CCC(N2CCOCC2)CC3)ncc1Cl)S(C)(=O)=O (mixture of isomers) [Example 1681, N-{(1R,2R)-2-[5-Chloro-2-(7-morpholin-4-yl-6,7,8,9-tetrahydro-5H-benzocyclohepten-2-ylamino)-pyrimidin-4-ylamino]-cyclohexyl}-N-methyl-methanesulfonamide]
